Measured values: ChEMBL document CHEMBL1201862, “PubChem BioAssay data set” (2004)
Activity calls are given as the source filed them.

Legend:
[1] = target: T1, DNA repair protein RAD52 homolog (Homo sapiens, UniProt P43351); assay type: functional, biochemical
T1 sequence (P43351 whole entry): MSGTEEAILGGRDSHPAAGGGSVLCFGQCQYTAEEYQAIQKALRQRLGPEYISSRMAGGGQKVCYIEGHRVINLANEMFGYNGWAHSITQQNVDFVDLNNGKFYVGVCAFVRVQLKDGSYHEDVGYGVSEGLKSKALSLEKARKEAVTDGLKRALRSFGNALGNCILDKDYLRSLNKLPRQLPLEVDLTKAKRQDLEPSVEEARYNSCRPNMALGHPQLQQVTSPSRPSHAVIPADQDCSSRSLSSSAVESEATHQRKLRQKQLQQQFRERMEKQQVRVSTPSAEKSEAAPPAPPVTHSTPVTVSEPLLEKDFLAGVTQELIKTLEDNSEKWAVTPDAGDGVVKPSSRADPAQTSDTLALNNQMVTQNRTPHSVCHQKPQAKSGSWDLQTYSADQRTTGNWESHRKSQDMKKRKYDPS

[2] = Luminescence Cell-Based Dose Response HTS to Identify Inhibitors of 5'UTR Stem-Loop Driven Prion Protein mRNA Translation in H4 Neuroglioblastoma Cells. [Related pubchem assays: 1827 (Project Summary), 1813 (Primary HTS)]; assay type: functional
[3] = alpha-synuclein stem-loop luciferase translation blockers – H4 neuroglioma cells, luminescence, confirmation (AID 1988); assay type: functional, cell-based
[4] = non-specific 3'UTR reporter inhibition in Clone20-Shn3RL – cell-based, Renilla luciferase, cherry-picked, counter-screen for Shn3 inhibitor project, dose response (AID 624133); assay type: functional
[5] = reduction of Shn3 3'UTR-driven luciferase in osteoblasts – cell-based, Clone20 osteoblasts, firefly luciferase, cherry-picked, dose response (AID 624132); assay type: functional;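 further: firefly luciferase luminescence from reporter carrying the Shn3 3'UTR in osteoblasts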
[6] = loss of viability in HepG2 cells – cell-based, CellTiter-Glo, cherry-picked, cytotoxicity control for Shn3 inhibitor project, dose response (AID 624134); assay type: functional
[7] = luciferase reporter signal suppression in cells – H4 neuroglioma cells, luminescence, dose response (AID 1990); assay type: functional, cell-based
[8] = NIH3T3 cell viability loss – ATP luminescence, mouse fibroblasts, counter-screen, dose response (AID 2010); assay type: functional, cell-based;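 further: cells exposed to compound for about 90 hours before reading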
[9] = Trypanosoma cruzi growth suppression in host cells – NIH3T3 host cells, beta-gal luminescence, confirmation (AID 2044); assay type: functional, cell-based;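 further: intracellular parasites grown in NIH/3T3 mouse fibroblasts as host cells; luminescent beta-galactosidase reporter signal from transgenic T. cruzi replicating inside host cells; inhibitors lower the luminescence signal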
[10] = A Cell Based Secondary Assay To Explore Cytotoxicity of Compounds that Sensitize Mycobacterium Tuberculosis to Beta-Lactam Antibiotics.; assay type: functional
[11] = tested on: BJ; test: cells; assay type: functional, cell-based; conditions: Homo sapiens
[12] = DRD fibroblast viability loss – cell-based, non-viral oncogenic, luminescence, dose response (AID 1934); assay type: functional; conditions: Homo sapiens
[13] = HEK-293T viability loss after treatment – luminescence, T-cell screen hits, cytotoxicity control for TCR NF-kB inhibitor project, dose response (AID 489026); assay type: functional, cell-based;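 further: cells exposed to compound about 14 hours before the viability readout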
[14] = tested on: BJ; test: BJ-TERT fibroblast viability loss – cell-based, RAS-independent, luminescence, dose response (AID 1933); assay type: functional; conditions: Homo sapiens
[15] = tested on: BJ; test: BJ-TERT-LT-ST fibroblast viability loss – cell-based, RAS-independent, luminescence, dose response (AID 1935); assay type: functional; conditions: Homo sapiens;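 further: BJ fibroblasts immortalized with TERT plus LT and ST oncogenes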
[16] = target: T2, Carboxy-terminal domain RNA polymerase II polypeptide A small phosphatase 1 (Homo sapiens, UniProt Q9GZU7); test: CTDSP1 inhibitors, concentration-response, biochemical, absorbance readout, ultra-high-throughput screen actives (AID 540297); assay type: functional
T2 sequence (Q9GZU7 whole entry): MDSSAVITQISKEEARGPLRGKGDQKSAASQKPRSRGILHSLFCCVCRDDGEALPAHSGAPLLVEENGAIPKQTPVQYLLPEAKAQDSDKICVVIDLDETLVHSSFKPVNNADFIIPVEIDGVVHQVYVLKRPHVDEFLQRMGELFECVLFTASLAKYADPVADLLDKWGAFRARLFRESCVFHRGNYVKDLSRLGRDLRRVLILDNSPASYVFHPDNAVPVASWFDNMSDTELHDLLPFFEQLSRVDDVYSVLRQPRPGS

[17] = target: T3, Rac GTPase-activating protein 1 (Homo sapiens, UniProt Q9H0H5); test: blockers of MgcRacGAP-driven Rac1 GTP hydrolysis – biochemical, ADP Hunter fluorescence, primary and confirmatory, confirmation (AID 624330); assay type: functional
T3 sequence (Q9H0H5 whole entry): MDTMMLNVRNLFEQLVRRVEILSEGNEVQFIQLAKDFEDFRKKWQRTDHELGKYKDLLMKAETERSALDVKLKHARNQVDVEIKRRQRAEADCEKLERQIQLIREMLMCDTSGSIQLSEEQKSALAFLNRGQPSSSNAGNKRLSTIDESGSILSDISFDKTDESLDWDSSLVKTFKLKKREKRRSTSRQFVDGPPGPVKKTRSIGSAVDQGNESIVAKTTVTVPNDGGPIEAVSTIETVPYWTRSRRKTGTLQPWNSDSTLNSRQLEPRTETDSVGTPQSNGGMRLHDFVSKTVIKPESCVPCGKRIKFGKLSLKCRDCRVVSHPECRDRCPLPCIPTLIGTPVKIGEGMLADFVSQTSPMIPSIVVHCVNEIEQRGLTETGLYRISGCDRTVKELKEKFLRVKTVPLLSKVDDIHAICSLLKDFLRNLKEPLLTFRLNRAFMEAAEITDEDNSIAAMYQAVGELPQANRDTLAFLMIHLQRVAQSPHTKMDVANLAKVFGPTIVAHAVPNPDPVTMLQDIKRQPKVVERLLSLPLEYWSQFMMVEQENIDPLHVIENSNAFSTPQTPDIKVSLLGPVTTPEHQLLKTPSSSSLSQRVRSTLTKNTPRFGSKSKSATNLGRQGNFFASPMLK

[18] = target: Genome polyprotein (dengue virus type 2, UniProt P29990); test: flavivirus cap methylation enzyme inhibition – biochemical, confirmation dose response, primary screen (AID 588689); assay type: functional
[19] = target: T4, High affinity choline transporter 1 (Homo sapiens, UniProt Q9GZV3); test: human choline transporter blockers, potency – cell-based, 5-point CRC, membrane potential dye, dose response (AID 504840); assay type: functional
T4 sequence (Q9GZV3 whole entry): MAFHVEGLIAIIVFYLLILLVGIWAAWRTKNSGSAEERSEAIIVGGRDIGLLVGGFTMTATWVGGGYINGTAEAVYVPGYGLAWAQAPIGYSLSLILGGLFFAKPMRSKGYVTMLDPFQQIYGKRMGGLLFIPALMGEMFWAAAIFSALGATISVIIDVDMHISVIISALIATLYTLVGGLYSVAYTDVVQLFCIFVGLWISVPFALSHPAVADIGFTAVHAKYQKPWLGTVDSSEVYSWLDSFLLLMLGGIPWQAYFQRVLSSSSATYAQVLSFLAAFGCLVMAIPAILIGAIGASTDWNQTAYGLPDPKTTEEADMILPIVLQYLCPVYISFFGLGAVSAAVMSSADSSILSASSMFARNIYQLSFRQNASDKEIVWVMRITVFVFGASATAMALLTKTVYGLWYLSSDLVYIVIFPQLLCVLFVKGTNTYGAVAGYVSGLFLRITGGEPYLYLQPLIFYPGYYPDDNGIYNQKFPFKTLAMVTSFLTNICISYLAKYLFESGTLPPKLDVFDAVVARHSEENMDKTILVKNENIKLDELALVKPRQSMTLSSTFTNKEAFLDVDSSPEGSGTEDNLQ

[20] = tested on: INS1; test: INS-1E survival protection against cytokine death – cell-based, luminescence, retest, dose response (AID 449756); assay type: functional; conditions: Rattus norvegicus;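 further: cell death triggered by IL-1 beta plus TNF-alpha plus IFN-gamma mixture; protective hits raise ATP signal compared with cytokine alone wells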
[21] = target: T5, Heat shock factor protein 1 (Mus musculus, UniProt P38532); test: enhancement of HSF1-driven luciferase signal – cell-based, NIH3T3, luminescence, dose retest, confirmation (AID 435004); assay type: functional;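 further: stress induced by proteasome inhibitor MG132 added 30 min after compound; luciferase reporter driven by HSF1 response element in NIH3T3 cells; actives raise luminescence as potentiators of the MG132 stress response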
T5 sequence (P38532 whole entry): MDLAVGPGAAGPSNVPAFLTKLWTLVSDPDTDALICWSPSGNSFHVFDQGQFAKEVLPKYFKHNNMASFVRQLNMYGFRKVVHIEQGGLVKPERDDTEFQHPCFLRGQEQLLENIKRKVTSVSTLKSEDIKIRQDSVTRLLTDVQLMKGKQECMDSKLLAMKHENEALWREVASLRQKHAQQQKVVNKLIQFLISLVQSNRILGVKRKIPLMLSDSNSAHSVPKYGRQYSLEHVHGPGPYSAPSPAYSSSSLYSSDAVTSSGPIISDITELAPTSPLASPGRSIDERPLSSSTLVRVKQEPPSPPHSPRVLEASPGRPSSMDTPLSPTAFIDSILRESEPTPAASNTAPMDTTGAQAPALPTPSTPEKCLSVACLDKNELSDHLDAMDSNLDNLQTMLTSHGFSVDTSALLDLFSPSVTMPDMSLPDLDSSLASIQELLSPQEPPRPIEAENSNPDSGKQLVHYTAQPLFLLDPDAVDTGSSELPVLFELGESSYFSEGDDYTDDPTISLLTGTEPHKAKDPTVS

[22] = THP-1 cell cytotoxicity, dose response, cytotoxicity control for non-replicating M. tuberculosis project (AID 489025); assay type: functional
[23] = cells; assay type: functional
[24] = tested on: Streptococcus; test: GAS UMAA2166 growth inhibition – luminescence, BacTiterGlo, counter-screen for streptokinase expression inhibitor project, dose response (AID 1915); assay type: functional, organism-based;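 further: potency for reduction of bacterial viability or growth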
[25] = tested on: Streptococcus sp. 'group A'; test: Streptococcus pyogenes SK(-)GAS viability under kanamycin – luminescence, BacTiterGlo, confirmation, counter-screen for streptokinase expression inhibitor project, dose response (AID 1900); assay type: functional, organism-based
[26] = blockade of melanocortin 4 receptor signaling – cell-based, plate reader, cherry pick, counter-screen for LGR2 antagonist project, dose response (AID 743444); assay type: functional;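 further: transfected HEK 293 cells stimulated with alpha-MSH peptide; potency of inhibitors of the alpha-MSH evoked signal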
[27] = blockers of bursicon-stimulated LGR2 cAMP reporter – cell-based, HEK293, CRE-luciferase reporter, cherry pick, set 2, dose response (AID 743343); assay type: functional;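 further: transfected cells were stimulated with diluted bursicon conditioned medium after compound addition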
[28] = A549 cell cytotoxicity, dose response, cytotoxicity control, plate reader, cherry-pick, antagonist series (AID 743412); assay type: functional, cell-based
[29] = toxicity toward HepG2 liver cells – cell-based, plate reader, cherry-pick, antagonist series, cytotoxicity control, dose response (AID 743416); assay type: functional
[30] = blockers of HIV-1 ZM109 envelope-driven cell-cell fusion – HeLa effector, CEM target cells, luciferase, cherry-pick, dose response (AID 652058); assay type: functional, cell-based;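 further: luciferase signal from HIV-1 Env mediated cell-cell fusion of effector and target cells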
[31] = HIV-1 AD8 envelope cell-cell fusion blockers – cherry-pick, dose response (AID 652062); assay type: functional, cell-based;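 further: luciferase signal from cell-cell fusion driven by HIV-1 clade B AD8 Env; potency is for inhibitors of fusion seen as a drop in luminescence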

Genome polyprotein, sequence (P29990 2492-3391 limits assumed): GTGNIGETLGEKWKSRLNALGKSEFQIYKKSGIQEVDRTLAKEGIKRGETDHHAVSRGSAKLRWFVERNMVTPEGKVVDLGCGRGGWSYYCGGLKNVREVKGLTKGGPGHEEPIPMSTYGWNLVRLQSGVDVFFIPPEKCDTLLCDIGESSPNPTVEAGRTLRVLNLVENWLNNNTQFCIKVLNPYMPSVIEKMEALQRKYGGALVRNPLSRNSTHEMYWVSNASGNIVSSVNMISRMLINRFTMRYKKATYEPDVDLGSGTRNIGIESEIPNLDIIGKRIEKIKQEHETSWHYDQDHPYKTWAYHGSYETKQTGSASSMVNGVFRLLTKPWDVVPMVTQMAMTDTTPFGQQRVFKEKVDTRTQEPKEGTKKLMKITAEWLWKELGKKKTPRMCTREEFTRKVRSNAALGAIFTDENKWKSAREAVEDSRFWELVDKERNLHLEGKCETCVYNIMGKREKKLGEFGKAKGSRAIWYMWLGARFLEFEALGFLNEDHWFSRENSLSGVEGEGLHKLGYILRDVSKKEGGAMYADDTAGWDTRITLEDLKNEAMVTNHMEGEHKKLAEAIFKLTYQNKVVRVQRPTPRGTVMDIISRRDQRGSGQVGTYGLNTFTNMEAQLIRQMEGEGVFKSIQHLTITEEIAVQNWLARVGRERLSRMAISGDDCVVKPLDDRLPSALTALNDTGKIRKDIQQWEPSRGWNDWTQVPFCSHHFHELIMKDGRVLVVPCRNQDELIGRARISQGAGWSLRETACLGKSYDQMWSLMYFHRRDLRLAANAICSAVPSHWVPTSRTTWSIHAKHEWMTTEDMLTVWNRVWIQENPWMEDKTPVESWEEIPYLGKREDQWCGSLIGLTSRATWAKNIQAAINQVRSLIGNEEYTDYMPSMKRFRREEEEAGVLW

SMILES: CCN(CC)CCCN(C(=O)c1cccc(C)c1)c1nc(-c2ccc(OC)cc2)cs1
- AC50 [1]: 17.2 µM (active)

SMILES: CCOC(=O)c1c(CSc2ccc(CC)cc2)oc2ccc(O)c(CN(C)C)c12
- EC50 [2]: > 120 µM (not active)
- EC50 [3]: > 120 µM (not active)
- AC50 [1]: 15.3 µM (active)
- AC50 [4]: 14.1 µM (active)
- AC50 [5]: 3.05 µM (active)
- AC50 [6]: 30.8 µM (active)
- EC50 [7]: > 120 µM (not active)
- EC50 [8]: > 30 µM (not active)
- EC50 [9]: 2.81 µM (active)

SMILES: O=C(Nc1ccc(C(F)(F)F)cc1)c1cc(-c2cccnc2)nc2ccc(Br)cc12
- CC50 [10]: > 40 µM (active)

SMILES: COc1cc(CC(=O)OCC(=O)c2ccc3c(c2)OCCO3)cc(OC)c1OC
- EC50 [2]: 5.66 µM (active)
- EC50 [11]: 15.1 µM (active)
- EC50 [12]: 2.47 µM (active)
- EC50 [3]: 4.99 µM (inconclusive)
- IC50 [13]: > 80 µM (inactive)
- EC50 [14]: 2.14 µM (active)
- EC50 [7]: 5.8 µM (inconclusive)
- EC50 [15]: 1.62 µM (inconclusive)

SMILES: O=C1NC(=O)N(c2ccc3c(c2)OCO3)C(=O)/C1=C\c1ccc(-c2ccccc2C(=O)O)o1
- IC50 [16]: 3.9 µM (active)
- IC50 [17]: 75.4 µM (active)
- IC50 [18]: > 100 µM (active)

SMILES: COc1cc(/C=C2\SC(NS(=O)(=O)Cc3ccccc3)=NC2=O)c([N+](=O)[O-])cc1OC
- IC50 [19]: 9.12 µM (active)
- IC50 [18]: 55.8 µM (active)

SMILES: CCCCNC(=O)c1onc(CSc2cccc3ccccc23)c1C(=O)O
- IC50 [18]: 49.6 µM (active)

SMILES: O=C1N=C(Nc2nc3ccccc3[nH]2)c2ccccc21
- EC50 [11]: 24.8 µM (inconclusive)
- EC50 [12]: 14.9 µM (active)
- EC50 [14]: 12.5 µM (active)
- AC50 [20]: 3 µM (active)
- EC50 [21]: 0.987 µM (inconclusive)
- EC50 [15]: 19.3 µM (active)

SMILES: Cc1c(C(=O)N2CCOCC2)[nH]c2c1C(=O)CC(c1ccccc1Cl)C2 (stereo unspecified)
- IC50 [13]: > 80 µM (inactive)

SMILES: Clc1ccc(CN2C3=NCCCN3c3ccccc32)cc1
- CC50 [22]: > 40 µM (active)

SMILES: Cc1ccccc1OCCCCc1c(C)n[nH]c1C
- IC50 [23]: 7 µM (active)
- CC50 [22]: > 40 µM (active)
- EC50 [24]: 19 µM (active)
- EC50 [25]: 9.02 µM (active)

SMILES: Cc1cc(C)c2nc(N3C(=O)C(O)=C(C(=O)c4ccco4)C3c3ccc(O)cc3)sc2c1 (stereo unspecified)
- IC50 [18]: 30.4 µM (active)

SMILES: CCCOc1ccc(F)cc1-c1cc(C(=O)Nc2cc(OC)c(OC)c(OC)c2)[nH]n1
- AC50 [26]: 31.2 µM (active)
- AC50 [27]: 24 µM (active)
- AC50 [28]: > 52 µM (inactive)
- AC50 [29]: > 52 µM (inactive)

SMILES: COc1ccc(S(=O)(=O)N[C@@H]2C=C[C@H](CC(=O)N3CCC(Cc4ccccc4)CC3)O[C@@H]2CO)cc1
- AC50 [30]: 19 µM (active)
- AC50 [31]: 32.6 µM (active)

SMILES: COc1ccccc1S(=O)(=O)N[C@H]1CC[C@@H](CC(=O)N2CCN(C)CC2)O[C@H]1CO
- AC50 [30]: 0.992 µM (active)
- AC50 [31]: 29.1 µM (active)
